Results from ChEMBL document CHEMBL3407403, “Synthetic modification of hydroxychavicol by Mannich reaction and alkyne-azide cycloaddition derivatives depicting cytotoxic potential” (Eur J Med Chem, 2015).

Key:
MCF7 [1] = assay: Growth inhibition of human MCF7 cells at 30 uM after 72 hrs by MTT assay; assay type: functional; conditions: MCF7, 72 h, read-out: GI
[2] = Growth inhibition of human MIAPaCa2 cells at 30 uM after 72 hrs by MTT assay; assay type: functional; conditions: MIA PaCa-2, 72 h, read-out: GI
HepG2 [3] = assay: Growth inhibition of human HepG2 cells at 50 uM after 72 hrs by MTT assay; assay type: functional; conditions: HepG2, 72 h, read-out: GI
[4] = Growth inhibition of human HL60 cells at 50 uM after 72 hrs by MTT assay; assay type: functional; conditions: HL-60, 72 h, read-out: GI
SK-N-SH [5] = assay: Growth inhibition of human SK-N-SH cells at 30 uM after 72 hrs by MTT assay; assay type: functional; conditions: read-out: GI
[6] = Growth inhibition of human HL60 cells at 30 uM after 72 hrs by MTT assay; assay type: functional; conditions: HL-60, 72 h, read-out: GI
SK-N-SH [7] = assay: Growth inhibition of human SK-N-SH cells at 50 uM after 72 hrs by MTT assay; assay type: functional; conditions: read-out: GI
MCF7 [8] = assay: Growth inhibition of human MCF7 cells at 50 uM after 72 hrs by MTT assay; assay type: functional; conditions: MCF7, 72 h, read-out: GI
HepG2 [9] = assay: Growth inhibition of human HepG2 cells at 30 uM after 72 hrs by MTT assay; assay type: functional; conditions: HepG2, 72 h, read-out: GI
[10] = Growth inhibition of human MIAPaCa2 cells at 50 uM after 72 hrs by MTT assay; assay type: functional; conditions: MIA PaCa-2, 72 h, read-out: GI
SK-N-SH [11] = assay: Growth inhibition of human SK-N-SH cells after 72 hrs by MTT assay; assay type: functional, cell-based
[12] = Growth inhibition of human HL60 cells after 24 hrs by MTT assay; assay type: functional, cell-based; conditions: HL-60, 24 h
[13] = Growth inhibition of human HL60 cells after 72 hrs by MTT assay; assay type: functional, cell-based; conditions: HL-60, 72 h
MCF7 [14] = assay: Growth inhibition of human MCF7 cells after 72 hrs by MTT assay; assay type: functional, cell-based; conditions: MCF7, 72 h
[15] = Growth inhibition of human MIAPaCa2 cells after 72 hrs by MTT assay; assay type: functional, cell-based; conditions: MIA PaCa-2, 72 h
HepG2 [16] = assay: Growth inhibition of human HepG2 cells after 72 hrs by MTT assay; assay type: functional, cell-based; conditions: HepG2, 72 h

Row | IC50 (SK-N-SH [11]) [µM] | IC50 (MCF7 [14]) [µM] | IC50 (HepG2 [16]) [µM] | Structure (SMILES) | inhibition of growth at 30 µM (MCF7 [1]) [%] | inhibition of growth at 30 µM [2] [%] | inhibition of growth at 50 µM (HepG2 [3]) [%] | inhibition of growth at 50 µM [4] [%] | inhibition of growth at 30 µM (SK-N-SH [5]) [%] | inhibition of growth at 30 µM [6] [%] | inhibition of growth at 50 µM (SK-N-SH [7]) [%] | inhibition of growth at 50 µM (MCF7 [8]) [%] | inhibition of growth at 30 µM (HepG2 [9]) [%] | inhibition of growth at 50 µM [10] [%] | IC50 [12] [µM] | IC50 [13] [µM] | IC50 [15] [µM]
1 | – | – | – | C=CCc1ccc(OCc2cn(-c3cccc(C#N)c3)nn2)c(O)c1 | 31.9 | 26.6 | 3.4 | 30.9 | 21.2 | 22.5 | 78.8 | 33.4 | 2.3 | 41.6 | – | – | –
2 | – | – | – | C=CCc1ccc(OCc2cn(-c3ccc(C(=O)c4ccccc4)cc3)nn2)c(O)c1 | 40.3 | 40.1 | 16.2 | 40.5 | 41.9 | 38.3 | 58.1 | 35.6 | 14.8 | 53.7 | – | – | –
3 | – | – | – | C=CCc1ccc(OCc2cn(-c3ccccc3CO)nn2)c(O)c1 | 34.5 | 39.6 | 8.5 | 47.1 | 12.9 | 31.7 | 87.1 | 40.4 | 4.2 | 52.1 | – | – | –
4 | – | – | – | C=CCc1cc(O)c(O)c(CN2CCN(c3ccc(C(C)=O)cc3)CC2)c1 | 42.8 | 86.2 | 65.9 | 89.2 | 53.8 | 87.9 | 54.6 | 47.1 | 46.1 | 75.1 | – | – | –
5 | – | – | – | C=CCc1cc(O)c(O)c(CN2CCC(CCO)CC2)c1 | 21.4 | 54.4 | 2 | 52.1 | 15.3 | 39.4 | 40.6 | 33.3 | 2.5 | 71.8 | – | – | –
6 | – | – | – | C=CCc1ccc(OCc2cn(-c3ccc(C#N)cc3)nn2)c(O)c1 | 35.7 | 39.3 | 12.1 | 31.8 | 37.5 | 20.8 | 62.5 | 35.6 | 1.5 | 45.9 | – | – | –
7 | – | – | – | C=CCc1cc(O)c(O)c(CN2CCC(C)CC2)c1 | 41.7 | 91.5 | 69.7 | 91.8 | 74.7 | 91.1 | 84.2 | 54.2 | 57.6 | 90.6 | – | – | –
8 | – | – | – | C=CCc1ccc(OCc2cn(-c3ccc(OC)cc3)nn2)c(O)c1 | 38.8 | 62.3 | 49.9 | 38.9 | 31.5 | 21.3 | 68.5 | 57.2 | 15.4 | 88.2 | – | – | –
9 | – | – | – | C=CCc1ccc(OCc2cn(-c3ccccc3Cl)nn2)c(O)c1 | 58.3 | 46.6 | 4.7 | 43.2 | 10.2 | 38.7 | 42.8 | 34.3 | 2.5 | 57.7 | – | – | –
10 | – | – | – | C=CCc1cc(O)c(O)c(CN2CCOCC2)c1 | 33.5 | 54.4 | 6.5 | 90.5 | 49.6 | 89.8 | 86.1 | 48.9 | 2.1 | 67.5 | – | – | –
11 | – | – | – | C=CCc1ccc(OCc2cn(-c3cccc([N+](=O)[O-])c3)nn2)c(O)c1 | 42.3 | 42.9 | 30.2 | 65.5 | 31.1 | 29.8 | 68.9 | 56.5 | 15.2 | 58.8 | – | – | –
12 | – | – | – | C=CCc1cc(O)c(O)c(CN2CCN(C)CC2)c1 | 22.8 | 46.8 | 6.3 | 53.4 | 24.7 | 42.1 | 30.8 | 35.1 | 1.5 | 69.5 | – | – | –
13 | – | – | – | C=CCc1ccc(OCc2cn(-c3ccc(Br)cc3)nn2)c(O)c1 | 19.4 | 43.3 | 9.5 | 25.6 | 38.3 | 22.1 | 61.7 | 29.1 | 8.9 | 47.3 | – | – | –
14 | – | – | – | C#CCOc1ccc(CC=C)cc1O | 23.7 | 27.4 | 5.6 | 34.2 | 11.8 | 30.7 | 88.4 | 15.8 | 1.5 | 30.3 | – | – | –
15 | – | – | – | C=CCc1cc(O)c(O)c(CN2CCC(CO)CC2)c1 | 26.2 | 34.1 | 5.4 | 43.3 | 21.9 | 37.7 | 49.4 | 32.3 | 4.7 | 38.6 | – | – | –
16 | – | – | – | C=CCc1ccc(OCc2cn(-c3cc(OC)c(OC)c(OC)c3)nn2)c(O)c1 | 37.3 | 41.1 | 2.5 | 41.4 | 44.1 | 32.8 | 55.9 | 38.1 | 1.2 | 49.8 | – | – | –
17 | 11 | 16 | 22 | C=CCc1cc(O)c(O)c(CN2CCC(Cc3ccccc3)CC2)c1 | 70.9 | 88.9 | 84 | 94.4 | 78.8 | 90.6 | 83.4 | 86.3 | 70.2 | 90.9 | 15 | 3 | 4
